Article PMC10979003, “Development and crystal structures of a potent second-generation dual degrader of BCL-2 and BCL-xL” (Nature Communications, 2024)
Where two headings read alike, the source gives them in different places.

How the values were obtained:
[1] = molecular target: T1, HiBiT-BCL-xL (Homo sapiens, UniProt Q07817); assay: HiBiT degradation assay, HiBiT knock-in BCL-xL HeLa cells; type: cell-based
T1 construct: endogenous in cells; host or cells: HeLa (ATCC CCL-2), CRISPR-Cas9 HiBiT knock-in clone
T1 sequence (Q07817 whole entry): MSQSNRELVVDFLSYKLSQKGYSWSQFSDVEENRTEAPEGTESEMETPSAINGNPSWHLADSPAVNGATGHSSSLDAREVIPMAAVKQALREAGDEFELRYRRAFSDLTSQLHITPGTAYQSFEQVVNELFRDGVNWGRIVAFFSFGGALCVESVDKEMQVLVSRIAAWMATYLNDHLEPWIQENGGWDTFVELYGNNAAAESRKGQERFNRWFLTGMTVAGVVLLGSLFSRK
Experimental: The Alt-R CRISPR RNA (crRNA):Alt-R trans-activating crRNA (tracrRNA) duplexes for targeting BCL-xL or BCL-2 were prepared by mixing 0.5 nmol crRNA and 0.5 nmol tracrRNA in 25 μL of Nuclease-Free Duplex Buffer (Integrated DNA Technologies, IDT) by incubation at 95 °C for 5 min and cooling to RT. Single-stranded ultramer DNA oligonucleotides (ssODN) (IDT) were used as the homology directed repair (HDR) donor templates. The sequences of gRNAs and ssODN templates are listed in Supplementary Table 2. Ribonucleoprotein (RNP) complexes with recombinant Streptococcus pyogenes Cas9 protein (IDT) and crRNA:tracrRNA duplex were assembled by incubating 100 pmol of Cas9 and 120 pmol of gRNA for 10–20 min at room temperature. HeLa (2 × 10^5) cells were resuspended in 10 μL of Neon^TM transfection system buffer R from the Neon^TM transfection system 10 mL kit (Thermo Fisher), and the RNP complex along with 100 pmol ssODN template were electroporated into HeLa cells with the Neon^TM transfection system (Thermo Fisher). After electroporation, HeLa cells were transferred to a 12-well plate for culturing. Edited pooled cells were analyzed for HiBiT insertion by assaying for luminescence using Nano-Glo® HiBiT lytic detection system (Cat #N3040, Promega) in a Biotek’s Synergy Neo2 multimode plate reader (Biotek) 48–72 h after electroporation and single clones were selected by serial dilution.
HeLa HiBiT-BCL-xL and HeLa HiBiT-BCL-2 cells (2 × 10^4/well in 80 μL DMEM) were seeded into white 96-well tissue culture plates and incubated overnight at 37 °C, 5% CO2. For dose curve testing, the following day, serial diluted compounds were added into the medium and then plates were incubated at 37 °C, 5% CO2, for 6 h. For time course testing, in the following day, compounds with indicated concentrations were added into the medium at different time points. After treatment, the luminescence signals were measured using Nano-Glo® HiBiT lytic detection system (Cat #N3040, Promega) in a Biotek’s Synergy Neo2 multimode plate reader (Biotek).

[2] = molecular target: T2, WT BCL-2 (Homo sapiens, UniProt P10415); assay: AlphaScreen displacement binary binding assay, WT BCL-2
T2 construct: BCL-xL (aa 2-212) and BCL-2 (aa 1-207) transformed cells were grown in LB broth; made in house; host or cells: E. coli BL21 (DE3) codon plus
T2 sequence (P10415 1-207): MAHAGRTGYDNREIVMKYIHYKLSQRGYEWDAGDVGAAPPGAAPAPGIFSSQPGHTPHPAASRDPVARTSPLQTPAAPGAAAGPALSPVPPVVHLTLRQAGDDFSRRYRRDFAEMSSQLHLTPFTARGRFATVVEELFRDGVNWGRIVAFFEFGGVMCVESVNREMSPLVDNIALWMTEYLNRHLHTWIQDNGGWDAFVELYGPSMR
Experimental: To test the binary/ternary binding affinities of compounds to BCL-2/BCL-xL, AlphaScreen displacement binding assay was performed to test the capabilities of testing compounds to displace a Biotin-tagged Bim (Biotin-[…]) or Bad (Biotin-[…]) from BCL-2 or BCL-xL for BCL-2 and BCL-xL binding affinities, respectively. All reagents were diluted in assay buffer of 25 mM HEPES, pH 7.5, 150 mM NaCl, 0.1% BSA, and 0.005% tween 20 prior incubation. To a 96-well PCR plate (VWR, Cat. No. 82006-636) was added 10 μL Biotin-tagged Bim (15 nM for WT or 50 nM for mutants) or Bad (15 nM for WT or 50 nM for mutants), 10 μL series diluted compounds solution (2 or 3 or 4× dilution), and 10 μL self-made 6×His tagged BCL-2 WT or mutants (25 nM WT or 50 nM mutants) or 10 μL self-made BCL-xL WT and mutants (10 nM WT or 50 nM mutants). After incubating at room temperature for 30 min, 5 µL of 160 μg/mL of anti-6×His acceptor beads (PerkinElmer, Cat. No. AL128M) was added and the mixture was incubated at room temperature for 15 min. 5 µL of 160 μg/mL of streptavidin donor beads (PerkinElmer, 6760002) was then added under subdued light and the mixture was incubated at dark for 30 min before being transferred to two adjacent wells (17 µL each) of 384-well white OptiPlate (PerkinElmer, Cat. No. 6008280). The luminescence signal was detected on a Biotek’s Synergy Neo2 multimode plate reader installed with an AphaScreen filter cube. The Ki values of each compounds were calculated by fitting data into the “Binding-competitive, One site-Fit Ki” function in GraphPad Prism (9.2.0) based on concentrations of Biotin–peptide used and experimentally determined Kd values of each 6×His protein &&&and Biotin–Peptide pair.

[3] = mean ± s.d., n=3, read-out: Ki (nM, n=3), BCL-2 WT
[4] = response letter, Supplementary Fig. 11, read-out: Ki, binary complex with BCL-2

| SMILES | Time to degrade 50% of BCL-xL ([1]; 10 nM compound) | Time to degrade 50% of BCL-xL ([1]; 100 nM compound) | Kd ([2]; Supplementary Fig. 11) [nM] | Ki [2, 3] [nM] | Ki [2, 4] [nM] | Potency for inducing degradation of BCL-xL (comparison) ([1]; 6 h treatment) |
| --- | --- | --- | --- | --- | --- | --- |
| Cc1ncsc1-c1ccc(C(C)NC(=O)C2CC(O)CN2C(=O)C(NC(=O)CCCCCCC(=O)N2CCN(CC3(C)CCC(c4ccc(Cl)cc4)=C(CN4CCN(c5ccc(C(=O)NS(=O)(=O)c6ccc(NC(CCN7CCOCC7)CSc7ccccc7)c(S(=O)(=O)C(F)(F)F)c6)cc5)CC4)C3)CC2)C(C)(C)C)cc1 (centres unmarked) [753b] | > 480 min | ~ 84 min | ~23.4 | 24.9 ± 5.4 | 23.4 | – |
| Cc1ncsc1-c1ccc([C@H](C)NC(=O)[C@@H]2C[C@@H](O)CN2C(=O)[C@@H](NC(=O)CN2CCN(CC(=O)N3CCN(C[C@]4(C)CCC(c5ccc(Cl)cc5)=C(CN5CCN(c6ccc(C(=O)NS(=O)(=O)c7ccc(N[C@H](CCN8C[C@@H]9C[C@H]8CO9)CSc8ccccc8)c(S(=O)(=O)C(F)(F)F)c7)cc6)CC5)C4)CC3)CC2)C(C)(C)C)cc1 [WH244] | ~ 219 min | ~ 45 min | ~3.1 | 3.5 ± 0.5 | 3.1 | more potent than 753b |
